Measurements published in patent publication EP4813463A2, “TYK2 INHIBITORS AND COMPOSITIONS AND METHODS THEREOF” (Lynk Pharmaceuticals Co. Ltd., priority 2023, dated 2024).
Converted amounts (≈) assume the structure as drawn. Like-named read-outs stand apart in the source and are kept apart here. Blank lines part the entries; values can stand above or below the compound they belong to.

Tests used:
[1] = tested on: pSTAT1; experiment: Phosphorylation inhibition of STAT in human whole blood (IFN-alpha stimulated, flow cytometry); assay type: cell-based; conditions: T-cell, 20 min, IFN-alpha stimulation 20 mins, CD3 T cells, read-out: pSTAT1 inhibition in hWB (IC50)
How it was run: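 Fresh human whole blood stimulated 20 min with human universal type I IFN-alpha, then fixed, permeabilised and stained for CD3 and pSTAT1 (Y701). pSTAT1 in T cells read by flow cytometry; IC50 from 4-parameter logistic fit.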

[2] = Kinetic solubility; assay type: physicochemical; conditions: phosphate buffer, pH 7.4, aqueous buffer, kinetic from dmso stock, 100 mM pH 7.4 phosphate buffer, 1% DMSO, room temperature, read-out: Kinetics Solubility_PBS7.4
How it was run: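 Compounds diluted from 10 mM/5 mM DMSO stocks into 100 mM phosphate buffer pH 7.4 (1% DMSO final), shaken 2 h at room temperature, then centrifuged. Dissolved compound in supernatant quantified by LC-MS/MS against a standard curve.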

[3] = biological target: T1, TYK2-JH2 domain (Homo sapiens, UniProt P29597); experiment: Binding activity test for JH2 domain of TYK2 (Tb-antibody/tracer FRET); conditions: for IC50: JH2 domain enzyme, 60 min at 25°C, then 4°C overnight, read-out: TYK2 JH2 Binding IC50; for JAK1/TYK2 selectivity: ratio of JAK1 JH2 to TYK2 JH2 binding IC50
T1 construct: JAK1-JH2 domain or TYK2-JH2 domain enzyme in assay buffer
How it was run: (§1)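 IC50 values (nM) come from TR-FRET readings taken after a 25°C incubation followed by overnight at 4°C. Each well held JH2 domain protein, Tb-antibody, tracer and test compound titrated in 11 threefold steps, with DMSO high and low controls.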

[4] = tested on: Ba/F3-FL-TYK2-P760L cells; experiment: Anti-proliferative assay in engineered Ba/F3 cells (Cell-Titer Glo, 72 h); assay type: cell-based; conditions: 72 h compound treatment, concentration that causes 50% growth inhibition, read-out: Baf3-FL-T2P760L
How it was run: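 IC50 from luminescent ATP viability after 72 h compound exposure (37 °C, 5% CO2), % inhibition normalised to DMSO-treated cells minus medium blank. IL-3-free Ba/F3-FL-TYK2-P760L (Tel-JAK fusion) cells in 10% FBS RPMI-1640 received 9 three-fold doses, top 20 µM, 0.1% DMSO.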

[5] = tested on: TYK2 pathway; experiment: IFN-γ release in NK92 cells stimulated by IL-12 (ELISA); assay type: cell-based; conditions: IL-12 2.5ng/mL stimulation 15hrs, IFN-γ in supernatant by ELISA
Method: IFN-γ Release in NK92 Cells Stimulated by IL-12
Purpose: To evaluate the inhibition activity of TYK2 inhibitors in NK92 cells on TYK2 pathway through ELISA method.
Procedure: 1) Seeding NK92 cells into 96-well plate, cell density is 1.5E5 cells/well, 100uL/well; 2)Add prepared test articles into indicated wells, 50uL/well, and continue incubate for 1h, at 37°C; 3) After compound treatment, add 50uL/well IL-12 into indicated wells, final concentration of IL-12 is 2.5ng/mL; 4)Incubate cytokine stimulated cells at 37°C for another 15hrs in CO2 incubator; 5) After cytokine stimulation, transfer culture supernatant into a new plate and centrifuge for 5min at 350x g, and detect IFN-γ concentration in the supernatant with ELISA kit; 6) Data analysis with GrapdPad Prism6.0 software. Table 5. IC50 Values of Exemplary Compounds on TYK2 Pathway

[6] = biological target: T2, JAK1-JH2 domain (Homo sapiens, UniProt P23458); experiment: Binding activity test for JH2 domain of JAK1 (Tb-antibody/tracer FRET); conditions: JH2 domain enzyme; 60 min at 25°C, then 4°C overnight; read-out: JAK1 JH2 Binding IC50
T2 construct: JAK1-JH2 domain or TYK2-JH2 domain enzyme in assay buffer
How it was run: as §1

[7] = Microsomal metabolic stability assay; assay type: in vitro ADME; conditions: human, liver microsomes, pH 7.4, 0.5 mg/mL microsomal protein, 1 µM test article, 2 mM NADPH
How it was run: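 Test or control compound (1 µM) incubated with microsomes (0.5 mg/mL protein) in 100 mM potassium phosphate pH 7.4, 1.0 mM EDTA at 37°C, started with NADPH regenerating system (2 mM NADPH). Sampled at 0, 5, 15, 30, 45 min, acetonitrile-quenched, LC/MS/MS. T1/2 from ln %remaining vs time slope; CLint = 0.693/T1/2 per mg protein/mL.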

[8] = tested on: IFNa pSTAT1; experiment: Phosphorylation of STAT1 inhibition in HMC3 cells with HTRF assay; assay type: cell-based; conditions: Homo sapiens, HMC3 microglia cells, 50ng/mL hINFα 1 hour, read-out: HTRF_HMC3 IC 50 (IFNa pSTAT1)
Method: Seeding HMC3 cells into 96-well plate and incubate overnight. Pre-stimulation with recombinant human IFNα (Sino biological, H08Y), treat cells with compound with different concentration for 1hr. After compound treatment, stimulate cells with 50ng/mL hINFα for another 1 hour (for CCF-STTG1 cells IFNα induction time is 30 mins). After compound treatment and cytokine stimulation, dump old medium and lyse cells with supplemented lysis buffer provided by the HTRF kit (Revvity, 63ADK026PEG) for 30 min at room temperature under shaking. After homogenization by pipetting up and down, transfer 16 µL of cell lysate from the 96-well cell-culture plate to a small volume white 384-well plate, and then add 4 µL of pre-mixed two ready-to-use antibody working solution into each wells. Cover the plate with a plate sealer and incubate it overnight at room temperature. Read the fluorescence emission at two different wavelengths (665nm and 620nm) on microplate reader (Molecular Device, SpectraMax i3X). Collect data and analyzed with GraphPad Prism.

[9] = tested on: IFNa pSTAT1; experiment: Phosphorylation of STAT1 inhibition in HMC3 cells by Jess; assay type: cell-based; conditions: Homo sapiens; HMC3 microglia cells, 50ng/mL hINFα 1 hour, Jess western; read-out: Jess_HMC3 IC50 (IFNa pSTAT1)
Method: Seeding HMC3 cells into 12-well plate and incubate overnight. Pre-stimulation with recombinant human IFNα (Sino biological, H08Y), treat cells with compound with different concentration for 1hr. After compound treatment, stimulate HMC3 cells with 50ng/mL hINFα for another 1 hour (for CCF-STTG1 cells IFNα induction time is 30 mins). And then wash cells with DPBS once gently and lyse cells with pre-cooled RIPA buffer (Sigma, R0278-500ML) for 30min on ice to harvest cells. Centrifuge cell lysate for 20 mins at 12000rpm with freezer centrifuge (Thermo Scientific, Heraeus Fresco 21) to extract protein. Prepare samples with Jess Simple Wes kit (SM-WO04) and then run western blot on Jess simple western system (Protein simple, JS-4631). Collect data and analyzed with GraphPad Prism.

[10] = Brain pharmacokinetic studies in rats; assay type: in vivo, Sprague-Dawley rats; conditions: for half-life / Kp / AUC: rats, iv, solution; for Kp: read-out: Brain AUC/Systemic AUC; for brain exposure in Rats: result in words
Method: Pharmacokinetic profiles of test articles were evaluated in fasted Sprague-Dawley rats. Different kinds of formulations were designed to ensure test articles fully dissolved and wouldn't precipitate in 1:10 SGF or FaSSIF dilution. Typically, Rats were dosed with 3 mg/kg and 5 mg/kg by intravenous injection and oral gavage, respectively. The animal was restrained manually at the designated time points, approximately 150 µL of blood sample was collected via jugular vein for serial bleeding into K2EDTA tubes. The blood samples were maintained in wet ice first and centrifuged to obtain plasma (2000g, 4°C, 5 min) within 30 minutes post sampling. Anesthetizing the rat with the Isoflurane vaporizer to 2%~3% and place its back on the operation table. Spread the animal limbs and pin the limbs on the operation table. Make a cut along the sternum about 4cm long, low enough to expose the sternum's end. Expose the heart and use a 25-gauge needle connected with a 20 mL syringe filled with 20 mL of cold saline to pierce the left ventricle. Maintain the placement of the needle, and slowly push the syringe plunger to wash the brain with saline. The perfusion will be finished within about 2 min and then take the brain out of the body carefully without damaging the tissue. Dry the tissue on filtrate paper, which should be placed on ice, and then weigh the brain tissue and store at -70 °C and analyzed by LC/MS/MS for quantification. PK parameter values, including, but not necessarily limited to, the maximum plasma concentrations (Cmax), and the area under the plasma concentration vs. time curve (AUC) from time zero to 24-hour (AUC0-24h) were determined using WinNonlin program. Table 13. Systemic Pharmacokinetic Parameters in Sprague-Dawley Rats

[11] = Sprague-Dawley, rat, brain, 3 mg/kg
[12] = Sprague-Dawley, rat, brain, 2 mg/kg

T2 sequence (P23458 583-855 limits assumed): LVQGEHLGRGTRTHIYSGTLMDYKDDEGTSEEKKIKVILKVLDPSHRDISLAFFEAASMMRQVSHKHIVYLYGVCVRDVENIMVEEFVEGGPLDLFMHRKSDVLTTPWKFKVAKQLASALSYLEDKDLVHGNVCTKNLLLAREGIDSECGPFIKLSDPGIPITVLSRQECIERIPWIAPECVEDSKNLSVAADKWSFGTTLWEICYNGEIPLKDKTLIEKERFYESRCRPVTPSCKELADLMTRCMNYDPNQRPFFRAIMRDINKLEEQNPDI
T1 sequence (P29597 589-875 limits assumed): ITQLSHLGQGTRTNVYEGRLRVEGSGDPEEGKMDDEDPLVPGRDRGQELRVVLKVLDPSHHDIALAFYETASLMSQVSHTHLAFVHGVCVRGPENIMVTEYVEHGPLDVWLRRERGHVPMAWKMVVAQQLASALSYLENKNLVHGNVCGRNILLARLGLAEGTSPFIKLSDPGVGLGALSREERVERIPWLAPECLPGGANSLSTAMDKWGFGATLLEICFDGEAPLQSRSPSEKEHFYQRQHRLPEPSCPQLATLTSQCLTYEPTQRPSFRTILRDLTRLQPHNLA

Structure (SMILES): [2H]C([2H])([2H])NC(=O)c1cnc(NC(=O)[C@@H]2C[C@@H]2F)cc1Nc1cnn2ccc(C(O)C(F)(F)F)c(OC)c12 (single isomer, unassigned) [Example 15A, 6-((1S,2S)-2-fluorocyclopropane-1-carboxamido)-4-((4-methoxy-5-((S*)-2,2,2-trifluoro-1-hydroxyethyl)pyrazolo[1,5-a]pyridin-3-yl)amino)-N-(methyl-d3)nicotinamide]
IC50 [1]: 34.8 nM
solubility kinetic at 2 h [2]: 23.9 µM (≈ 11.9 µg/mL)
IC50 [3]: 0.078 nM
JAK1/TYK2 selectivity [3]: 160.8
IC50 [4]: 10.6 nM
IC50 [5]: 15.7 nM
IC50 [6]: 12.5 nM
microsomal CLint at 1 µM ([7]; read-out: Human LM Clint): 11.9 µL/min/mg
half-life at 1 µM ([7]; read-out: Human LM T1/2): 116 min

Structure (SMILES): CCn1nc(Nc2cc(NC(=O)C3CC3)ncc2C(=O)OC)c2c(OC)c(C(O)C(F)(F)F)ccc21 (single isomer, unassigned) [Example 70A, Methyl (S*)-6-(cyclopropanecarboxamido)-4-((1-ethyl-4-methoxy-5-(2,2,2-trifluoro-1-hydroxyethyl)-1H-indazol-3-yl)amino)nicotinate]
IC50 [1]: 43.7 nM
IC50 [8]: < 0.061 nM
IC50 [3]: 0.15 nM
JAK1/TYK2 selectivity [3]: 145.12
IC50 ([4]; Mus musculus, BaF3, 72 h): 2.35 nM
IC50 [6]: 21.8 nM

IC50 [8]: 0.821 nM
IC50 [9]: 4.28 nM
IC50 [3]: 0.417 nM
IC50 [4]: 0.395 nM
Structure (SMILES): CCC(F)(F)c1cnc(NC(=O)C2CC2)cc1Nc1nn(C)c2ccc(C(O)C(F)(F)F)c(OC)c12 (single isomer, unassigned) [Example 193A, (S*)-N-(5-(1,1-Difluoropropyl)-4-((4-methoxy-1-methyl-5-(2,2,2-trifluoro-1-hydroxyethyl)-1H-indazol-3-yl)amino)pyridin-2-yl)cyclopropanecarboxamide]

Structure (SMILES): COC(=O)c1cnc(NC(=O)C2CC2)cc1Nc1cnn2ccc([C@H](O)C(F)(F)F)c(OC)c12 [Example 26, Methyl (5)-6-(cyclopropanecarboxamido)-4-((4-methoxy-5-(2,2,2-trifluoro-1-hydroxyethyl)pyrazolo[1,5-a]pyridin-3-yl)amino)nicotinate]
IC50 [3]: 0.183 nM
JAK1/TYK2 selectivity [3]: 338.1
IC50 ([4]; Mus musculus, BaF3, 72 h): 35.2 nM
IC50 [5]: 17.6 nM
half-life [10, 11]: 119 min
Kp [10, 11]: 0.11
half-life ([10]; Sprague-Dawley, rat, systemic (plasma), 3 mg/kg): 91.8 min
AUC ([10]; Sprague-Dawley, rat, systemic (plasma), 3 mg/kg, read-out: AUC): 1290 ng·h/mL
AUC ([10]; brain, 3 mg/kg): 140 ng·h/g
brain exposure in Rats [10]: good brain exposure
IC50 [6]: 61.9 nM

Structure (SMILES): [2H]C([2H])([2H])CC(=O)c1cnc(NC(=O)C2CC2)cc1Nc1nn(C)c2ccc([C@H](O)C(F)(F)F)c(OC)c12 [Example 54A, (S)-N-(4-((4-methoxy-1-methyl-5-(2,2,2-trifluoro-1-hydroxyethyl)-1H-indazol-3-yl)amino)-5-(propanoyl-3,3,3-d3)pyridin-2-yl)cyclopropanecarboxamide]
IC50 [1]: 10.8 nM
IC50 [8]: < 0.061 nM
IC50 [3]: 0.118 nM
JAK1/TYK2 selectivity [3]: 32.37
IC50 ([4]; Mus musculus, BaF3, 72 h): 0.577 nM
half-life [10, 12]: 98.4 min
Kp [10, 12]: 0.18
half-life ([10]; Sprague-Dawley, rat, systemic (plasma), 2 mg/kg): 102 min
AUC ([10]; Sprague-Dawley, rat, systemic (plasma), 2 mg/kg, read-out: AUC): 1060 ng·h/mL
AUC ([10]; brain, 2 mg/kg): 188 ng·h/g
brain exposure in Rats [10]: good brain exposure
IC50 [6]: 3.82 nM

Structure (SMILES): COC(=O)c1cnc(NC(=O)C2CC2)cc1Nc1nn(C)c2ccc(C(OC)C(F)F)c(OC)c12 (stereo not drawn) [Example 68, Methyl 6-(cyclopropanecarboxamido)-4-((5-(2,2-difluoro-1-methoxyethyl)-4-methoxy-1-methyl-1H-indazol-3-yl)amino)nicotinate]
IC50 [8]: < 0.061 nM
IC50 [9]: 3.17 nM
IC50 [3]: 0.14 nM
JAK1/TYK2 selectivity [3]: 116.36
IC50 ([4]; Mus musculus, BaF3, 72 h): 3.6 nM
IC50 [6]: 16.3 nM

Structure (SMILES): COCC(OC)c1ccc2c(c(Nc3cc(NC(=O)C4CC4)ncc3C(=O)OC)nn2C)c1OC (stereo not drawn) [Example 159, Methyl 6-(cyclopropanecarbonylamino)-4-[[5-(1,2-dimethoxyethyl)-4-methoxy-1-methyl-indazol-3-yl]amino]pyridine-3-carboxylate]
IC50 [1]: 129 nM
IC50 [8]: 0.082 nM
IC50 [3]: 0.203 nM
JAK1/TYK2 selectivity [3]: 40.45
IC50 ([4]; Mus musculus, BaF3, 72 h): 6.29 nM
IC50 [6]: 8.21 nM
